# Assay results reported in patent publication US10894788B2, “Inhibitors of cyclin-dependent kinases” (Kinnate Biopharma Inc., priority 2018, dated 2021).
# Biological target: CDK12 wt/CycK (Homo sapiens (Human), UniProt Q9NYV4)
# Assay: Radiometric protein kinase assay (33PanQinase Activity Assay), Assay Condition A (thiol containing conditions)
# Assay type: biochemical
# Settings: not given
# Experimental: Example 1—Assay Condition A (Thiol Containing Conditions)
# Objective: The IC50 profile of test compounds was determined using three protein kinases.
# Test compounds: The compounds were provided as pre-weighed powders in vials. The compounds were dissolved to 1×10^−02M by adding DMSO. 100 μl of each of the resulting stock solutions were transferred into column 2 of four 96 well “master plates”.
# Prior to testing, the 1×10^−02M stock solutions in column 2 of the master plates were subjected to a serial, semi-logarithmic dilution using 100% DMSO as a solvent. […] Column 1 and 7 were filled with 100% DMSO as controls. Subsequently, 2×10 μl from each well of the serial diluted copy plates were aliquoted with a 96 channel pipettor into two identical sets of “compound dilution plates”.
# In the process, 90 μl H2O were added to each well of a set of compound dilution plates. To minimize potential precipitation, the H2O was added to each plate only a few minutes before the transfer of the compound solutions into the assay plates. Each plate was shaken thoroughly, resulting in a “compound dilution plate/10% DMSO”.
# For the assays, 5 μl solution from each well of the compound dilution plates/10% DMSO were transferred into the assay plates. The final volume of the assay was 50 μl. All compounds were tested at 10 final assay concentrations in the range from 1×10^−04M to 3×10^−09M, in singlicate. The final DMSO concentration in the reaction cocktails was 1% in all cases.
# Recombinant protein kinases: All protein kinases were expressed in Sf9 insect cells or in E. coli as recombinant GST-fusion proteins or His-tagged proteins, either as full-length or enzymatically active fragments. All kinases were produced from human cDNAs and purified by either GSH-affinity chromatography or immobilized metal. Affinity tags were removed from a number of kinases during purification. The purity of the protein kinases was examined by SDS-PAGE/Coomassie staining, the identity was checked by mass spectroscopy.
# Protein kinase assay: A radiometric protein kinase assay (^33PanQinase® Activity Assay) was used for measuring the kinase activity of the three protein kinases. All kinase assays were performed in 96-well FlashPlates™ from PerkinElmer (Boston, Mass., USA) in a 50 μl reaction volume. The reaction cocktail was pipetted in four steps in the following order: • 20 μl of assay buffer (standard buffer) • 5 μl of ATP solution (in H2O) • 5 μl of test compound (in 10% DMSO) • 20 μl enzyme/substrate mix
# The following amounts of enzyme and substrate were used per well:
# The reaction cocktails were incubated at 30° C. for 60 minutes. The reaction was stopped with 50 μl of 2% (v/v) H3PO4, plates were aspirated and washed two times with 200 μl 0.9% (w/v) NaCl. Incorporation of ^33Pi was determined with a microplate scintillation counter (Microbeta, Wallac). All assays were performed with a BeckmanCoulter/SAGIAN™ Core System.
# Evaluation of raw data: The median value of the counts in column 1 (n=8) of each assay plate was defined as “low control”. This value reflects unspecific binding of radioactivity to the plate in the absence of a protein kinase but in the presence of the substrate. The median value of the counts in column 7 of each assay plate (n=8) was taken as the “high control”, i.e. full activity in the absence of any inhibitor. The difference between high and low control was taken as 100% activity.
# As part of the data evaluation the low control value from a particular plate was subtracted from the high control value as well as from all 80 “compound values” of the corresponding plate. The residual activity (in %) for each well of a particular plate was calculated by using the following formula: Res. Activity (%)=100×[(cpm of compound−low control)/(high control−low control)]
# The residual activities for each concentration and the compound IC50 values were calculated using Quattro Workflow V3.1.1 (Quattro Research GmbH, Munich, Germany).
# Sequence of CDK12 wt/CycK (Q9NYV4 whole entry): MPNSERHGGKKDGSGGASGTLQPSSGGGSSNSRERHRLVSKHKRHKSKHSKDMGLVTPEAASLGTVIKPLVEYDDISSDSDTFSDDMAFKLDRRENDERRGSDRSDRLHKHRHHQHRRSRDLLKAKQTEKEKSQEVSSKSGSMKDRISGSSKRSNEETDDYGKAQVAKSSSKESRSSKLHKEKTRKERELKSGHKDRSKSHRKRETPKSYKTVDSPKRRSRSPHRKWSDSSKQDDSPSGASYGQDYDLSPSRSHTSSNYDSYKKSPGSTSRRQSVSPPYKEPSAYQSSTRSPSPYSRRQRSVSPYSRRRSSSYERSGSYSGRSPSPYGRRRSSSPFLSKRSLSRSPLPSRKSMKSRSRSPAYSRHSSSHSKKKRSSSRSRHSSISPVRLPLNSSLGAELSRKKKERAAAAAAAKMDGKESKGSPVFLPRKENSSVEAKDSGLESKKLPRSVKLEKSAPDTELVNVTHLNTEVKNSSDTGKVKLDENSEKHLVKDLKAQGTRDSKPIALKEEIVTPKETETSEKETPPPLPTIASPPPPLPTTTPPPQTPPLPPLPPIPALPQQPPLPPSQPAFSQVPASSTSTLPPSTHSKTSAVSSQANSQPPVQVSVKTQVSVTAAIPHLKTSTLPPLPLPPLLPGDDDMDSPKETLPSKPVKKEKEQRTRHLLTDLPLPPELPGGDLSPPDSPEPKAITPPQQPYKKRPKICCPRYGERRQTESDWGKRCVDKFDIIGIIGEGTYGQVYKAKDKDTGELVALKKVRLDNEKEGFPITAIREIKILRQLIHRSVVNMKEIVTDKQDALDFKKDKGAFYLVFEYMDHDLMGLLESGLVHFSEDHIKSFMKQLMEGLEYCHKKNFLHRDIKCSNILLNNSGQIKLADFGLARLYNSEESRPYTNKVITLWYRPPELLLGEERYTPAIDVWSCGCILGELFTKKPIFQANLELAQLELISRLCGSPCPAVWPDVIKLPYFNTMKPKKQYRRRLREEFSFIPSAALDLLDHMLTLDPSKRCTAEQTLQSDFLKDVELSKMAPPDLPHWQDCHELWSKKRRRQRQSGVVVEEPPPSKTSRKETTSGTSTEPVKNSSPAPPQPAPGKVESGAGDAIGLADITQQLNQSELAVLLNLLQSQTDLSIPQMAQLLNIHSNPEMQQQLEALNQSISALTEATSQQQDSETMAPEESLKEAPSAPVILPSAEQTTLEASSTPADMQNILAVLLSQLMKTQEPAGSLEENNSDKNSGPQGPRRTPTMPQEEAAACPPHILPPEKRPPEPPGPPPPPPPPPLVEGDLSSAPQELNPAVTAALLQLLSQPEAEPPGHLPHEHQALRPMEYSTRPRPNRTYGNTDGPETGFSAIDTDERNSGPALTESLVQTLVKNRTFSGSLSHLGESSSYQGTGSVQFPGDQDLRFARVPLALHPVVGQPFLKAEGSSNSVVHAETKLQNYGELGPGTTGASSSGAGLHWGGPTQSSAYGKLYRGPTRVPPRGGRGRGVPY
# Sequence of CDK12 wt/CycK (O75909 whole entry partner): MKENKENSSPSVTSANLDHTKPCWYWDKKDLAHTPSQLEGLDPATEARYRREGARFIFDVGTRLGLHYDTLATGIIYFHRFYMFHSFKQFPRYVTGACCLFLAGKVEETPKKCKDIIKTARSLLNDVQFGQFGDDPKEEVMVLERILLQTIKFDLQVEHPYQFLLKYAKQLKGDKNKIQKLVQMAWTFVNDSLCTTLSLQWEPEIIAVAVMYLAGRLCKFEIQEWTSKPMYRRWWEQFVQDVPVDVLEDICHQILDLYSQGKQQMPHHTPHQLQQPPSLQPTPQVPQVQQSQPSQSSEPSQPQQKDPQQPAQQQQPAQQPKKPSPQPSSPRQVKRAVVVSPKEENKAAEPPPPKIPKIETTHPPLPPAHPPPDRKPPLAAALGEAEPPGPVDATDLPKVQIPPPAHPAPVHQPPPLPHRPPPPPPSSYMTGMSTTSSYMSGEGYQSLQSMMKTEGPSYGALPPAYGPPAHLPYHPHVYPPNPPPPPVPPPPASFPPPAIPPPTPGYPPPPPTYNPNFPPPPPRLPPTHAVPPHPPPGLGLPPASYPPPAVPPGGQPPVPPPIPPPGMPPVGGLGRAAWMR
row,Compound,IC50 [nM]
1,"C=CC(=O)Nc1ccc(C(=O)N2CC[C@@](C)(Nc3ncc(Cl)cn3)C2)cc1 [Example 109, (R)—N-(4-(3-((5-chloropyrimidin-2-yl)amino)-3-methylpyrrolidine-1-carbonyl)phenyl)acrylamide]",10000 to 30000
2,"C=CC(=O)Nc1ccc(C(=O)N2CC[C@@H](Nc3ncc(Br)cn3)C2)cc1OCCN1CCOCC1 [Example 156, (R)—N-(4-(3-((5-bromopyrimidin-2-yl)amino)pyrrolidine-1-carbonyl)-2-(2-morpholinoethoxy)phenyl)acrylamide]",100 to 1000
3,"[2H]C([2H])([2H])Oc1nc(N[C@@H]2CCN(C(=O)c3ccc(NC(=O)C#C)cc3)C2)ncc1Cl [Example 154, (R)—N-(4-(3-((5-chloro-4-(trideuteromethoxy)pyrimidin-2-yl)amino)pyrrolidine-1-carbonyl)phenyl)propiolamide]",< 100

# Same assay, conditions: thiol containing conditions (1.2 mM DTT), ATP 0.3 μM; read-out: CDK12 IC50 Condition A
row,IC50 [nM],Compound
1,100 to 1000,"COc1nc(N[C@@H]2CCN(C(=O)c3ccc(NC(=O)/C=C/CN4CCC[C@@H](F)C4)cc3)C2)ncc1Cl [Example 178, (E)-N-(4-((R)-3-((5-chloro-4-methoxypyrimidin-2-yl)amino)pyrrolidine-1-carbonyl)phenyl)-4-((R)-3-fluoropiperidin-1-yl)but-2-enamide]"
2,100 to 1000,"[2H]C([2H])([2H])Oc1nc(N[C@@H]2CCN(C(=O)c3ccc(NC(=O)/C=C/CN(C)C)cc3)C2)ncc1Cl [Example 114, (R,E)-N-(4-(3-((5-chloro-4-(trideuteromethoxy)pyrimidin-2-yl)amino)pyrrolidine-1-carbonyl)phenyl)-4-(dimethylamino)but-2-enamide]"
3,1000 to 10000,"C=CC(=O)Nc1ccc(C(=O)N2CC[C@@H](Nc3ncc(CC(C)C)cn3)C2)cc1 [Example 107, (R)—N-(4-(3-((5-isobutylpyrimidin-2-yl)amino)pyrrolidine-1-carbonyl)phenyl)acrylamide]"
4,1000 to 10000,"O=C(Nc1ccc(C(=O)N2CC[C@@H](Nc3ncc(Cl)cn3)C2)cc1)C1CO1 (stereo partly drawn) [Example 141, N-(4-((R)-3-((5-chloropyrimidin-2-yl)amino)pyrrolidine-1-carbonyl)phenyl)oxirane-2-carboxamide]"
5,< 100,"C=CC(=O)Nc1ccc(C(=O)N2CC[C@@H](Nc3ncc(Br)cn3)C2)cc1O[C@H]1CCN(C)C1 [Example 164, N-(4-((R)-3-((5-bromopyrimidin-2-yl)amino)pyrrolidine-1-carbonyl)-2-(((S)-1-methylpyrrolidin-3-yl)oxy)phenyl)acrylamide]"
6,100 to 1000,"C=CC(=O)Nc1ccc(C(=O)N2CC[C@@H](Nc3ncc(C#N)cn3)C2)cc1 [Example 148, (R)—N-(4-(3-((5-cyanopyrimidin-2-yl)amino)pyrrolidine-1-carbonyl)phenyl)acrylamide]"
7,100 to 1000,"N#CCC(=O)Nc1ccc(C(=O)N2CC[C@@H](Nc3ncc(Cl)cn3)C2)cc1 [Example 133, (R)—N-(4-(3-((5-chloropyrimidin-2-yl)amino)pyrrolidine-1-carbonyl)phenyl)-2-cyanoacetamide]"
8,100 to 1000,"COc1nc(N[C@@H]2CCN(C(=O)c3ccc(NC(=O)/C=C/CN4CCOCC4)cn3)C2)ncc1Cl [Example 174, (R,E)-N-(6-(3-((5-chloro-4-methoxypyrimidin-2-yl)amino)pyrrolidine-1-carbonyl)pyridin-3-yl)-4-morpholinobut-2-enamide]"
9,1000 to 10000,"COc1nc(N[C@@H]2CCN(C(=O)c3ccc(NC(=O)C4CO4)cc3)C2)ncc1Cl (stereo partly drawn) [Example 142, N-(4-((R)-3-((5-chloro-4-methoxypyrimidin-2-yl)amino)pyrrolidine-1-carbonyl)phenyl)oxirane-2-carboxamide]"

# The remaining lines, values behind:
row,Compound,IC50 [nM]
1,"C=CC(=O)N1CCc2ccc(C(=O)N3CC[C@@H](Nc4ncc(Cl)cn4)C3)cc2C1 [Example 130, (R)-1-(7-(3-((5-chloropyrimidin-2-yl)amino)pyrrolidine-1-carbonyl)-3,4-dihydroisoquinolin-2(1H)-yl)prop-2-en-1-one]",100 to 1000
2,"C=CC(=O)Nc1ccc(C(=O)N2CC[C@@H](Nc3ncc(Br)cn3)C2)cc1OCCN1CCC(F)(F)CC1 [Example 162, (R)—N-(4-(3-((5-bromopyrimidin-2-yl)amino)pyrrolidine-1-carbonyl)-2-(2-(4,4-difluoropiperidin-1-yl)ethoxy)phenyl)acrylamide]",100 to 1000
3,"C=CC(=O)Nc1ccc(C(=O)N2CC[C@@H](Nc3ncc(Cl)c(OCCOCC)n3)C2)cc1N1CCN(C)CC1 [Example 123, (R)—N-(4-(3-((5-chloro-4-(2-ethoxyethoxy)pyrimidin-2-yl)amino)pyrrolidine-1-carbonyl)-2-(4-methylpiperazin-1-yl)phenyl)acrylamide]",100 to 1000
4,"COc1nc(N[C@@H]2CCN(C(=O)c3ccc(NC(=O)/C=C/CN4CCOCC4)cc3)C2)ncc1Cl [Example 168, (R,E)-N-(4-(3-((5-chloro-4-methoxypyrimidin-2-yl)amino)pyrrolidine-1-carbonyl)phenyl)-4-morpholinobut-2-enamide]",100 to 1000
5,"C=CC(=O)Nc1ccc(C(=O)N2CC[C@@H](Nc3ncc(Cl)cn3)C2)cc1 [Example 87, (R)—N-(4-(3-((5-chloropyrimidin-2-yl)amino)pyrrolidine-1-carbonyl)phenyl)acrylamide]",100 to 1000
6,"C=CC(=O)Nc1ccc(C(=O)N2CC[C@@H](Nc3ncc(C#N)c(OC)n3)C2)cc1OCCN(C)C [Example 165, (R)—N-(4-(3-((5-cyano-4-methoxypyrimidin-2-yl)amino)pyrrolidine-1-carbonyl)-2-(2-(dimethylamino)ethoxy)phenyl)acrylamide]",< 100
7,"C=CC(=O)Nc1ccc(C(=O)N2CC[C@@H](Nc3ncc(Cl)c(N4CCC4)n3)C2)cc1 [Example 89, (R)—N-(4-(3-((4-(azetidin-1-yl)-5-chloropyrimidin-2-yl)amino)pyrrolidine-1-carbonyl)phenyl)acrylamide]",100 to 1000
8,"O=C(c1ccc(N2C(=O)C=CC2=O)cc1)N1CC[C@@H](Nc2ncc(Cl)cn2)C1 [Example 140, (R)-1-(4-(3-((5-chloropyrimidin-2-yl)amino)pyrrolidine-1-carbonyl)phenyl)-1H-pyrrole-2,5-dione]",1000 to 10000
9,"[2H]c1nc(N[C@@H]2CCN(C(=O)c3ccc(NC(=O)C=C)cc3)C2)nc(NC)c1Cl [Example 111, (R)—N-(4-(3-((5-chloro-4-deutero-6-(methylamino)pyrimidin-2-yl)amino)pyrrolidine-1-carbonyl)phenyl)acrylamide]",< 100
10,"C=CC(=O)Nc1nc(C(=O)N2CC[C@@H](Nc3ncc(Cl)cn3)C2)cs1 [Example 94, (R)—N-(4-(3-((5-chloropyrimidin-2-yl)amino)pyrrolidine-1-carbonyl)thiazol-2-yl)acrylamide]",100 to 1000
11,"C=CC(=O)N(C)c1ccc(C(=O)N2CC[C@@H](Nc3ncc(Cl)c(OC)n3)C2)nc1 [Example 77, (R)—N-(6-(3-((5-chloro-4-methoxypyrimidin-2-yl)amino)pyrrolidine-1-carbonyl)pyridin-3-yl)-N-methylacrylamide]",100 to 1000
12,"C=CC(=O)Nc1ccc(C(=O)N2CC[C@@H](Nc3ncc(C(F)(F)F)cn3)C2)cc1 [Example 184, (R)—N-(4-(3-((5-(trifluoromethyl)pyrimidin-2-yl)amino)pyrrolidine-1-carbonyl)phenyl)acrylamide]",< 100
13,"C#CC(=O)Nc1ccc(C(=O)N2CC[C@@H](Nc3ncc(Cl)c(OC)n3)C2)cc1 [Example 124, (R)—N-(4-(3-((5-chloro-4-methoxypyrimidin-2-yl)amino)pyrrolidine-1-carbonyl)phenyl)propiolamide]",< 100
